In patent US10633389B2, “CARM1 inhibitors and uses thereof” (Epizyme, Inc., priority 2013, dated 2020):

Test system: asymmetric di-methyl PABP1 in RKO cells
Experiment: RKO methylation assay, In Cell Western (ICW) for asymmetric di-methyl PABP1
Assay type: cell-based
Settings: Homo sapiens, RKO, Cellular potencies, ICW PABP1me2a
Description: RKO adherent cells were purchased from ATCC (American Type Culture Collection), Manassas, Va., USA. DMEM/Glutamax medium, penicillin-streptomycin, heat inactivated fetal bovine serum, 0.05% trypsin and D-PBS were purchased from Life Technologies, Grand Island, N.Y., USA. Odyssey blocking buffer, 800 CW goat anti-rabbit IgG (H+L) antibody, and Licor Odyssey infrared scanner were purchased from Licor Biosciences, Lincoln, Nebr., USA. Asymmetric di-methyl PABP1 antibody was purchased from Cell Signaling Technology, Danvers, Mass., USA. Methanol was purchased from VWR, Franklin, Mass., USA. 10% Tween 20 was purchased from KPL, Inc., Gaithersburg, Md., USA. Paraformaldehyde (PFA) was purchased from EM Sciences. DRAQ5 was purchased from Biostatus Limited, Leicestershire, UK.
RKO adherent cells were maintained in growth medium (DMEM/Glutamax medium supplemented with 10% v/v heat inactivated fetal bovine serum and 100 units/mL penicillin-streptomycin) and cultured at 37° C. under 5% CO2.
Cell treatment, In Cell Western (ICW) for detection of asymmetric di-methyl PABP1 and DNA content: RKO cells were seeded in assay medium at a concentration of 30,000 cells per mL to a poly-D-lysine coated 384 well culture plate (BD Biosciences 356697) with 50 VL per well. Compound (100 nL) from a 96-well source plate was added directly to 384 well cell plate. Plates were incubated at 37° C., 5% CO2 for 48 hours. After two days of incubation, plates were brought to room temperature outside of the incubator for ten minutes and blotted on paper towels to remove cell media. Cells were fixed for 20 minutes at room temperature by adding 50 ul of 8% PFA followed by aspiration of supernatant with the Biotek EL406 plate washer. Cells were then permeabilized by addition of 50 μL of ice cold 100% methanol directly to each well and incubated for 30 min at room temperature. After 30 min, plates were transferred to a Biotek EL406 plate washer and washed 2 times with 100 μL per well of wash buffer (1×PBS). Next 60 μL per well of Odyssey blocking buffer (Odyssey Buffer with 0.1% Tween 20 (v/v)) were added to each plate and incubated 1 hour at room temperature. Blocking buffer was removed and 20 μL per well of primary antibody was added (asymmetric-methyl PABP1) diluted 1:400 in Odyssey buffer with 0.1% Tween 20 (v/v)) and plates were incubated overnight (16 hours) at 4° C. Plates were washed 5 times with 100 μL per well of wash buffer. Next 20 μL per well of secondary antibody was added (1:800 800 CW goat anti-rabbit IgG (H+L) antibody, 1:2000 DRAQ5 in Odyssey buffer with 0.1% Tween 20 (v/v)) and incubated for 1 hour at room temperature. The plates were washed 5 times with 100 μL per well wash buffer then 2 times with 100 μL per well of water. Plates were allowed to dry at room temperature then imaged on the Licor Odyssey machine which measures integrated intensity at 700 nm and 800 nm wavelengths. Both 700 and 800 channels were scanned.
First, the ratio for each well was determined by:
Each plate included fourteen control wells of DMSO only treatment (minimum inhibition) as well as fourteen control wells for maximum inhibition treated with 20 μM of a reference compound. The average of the ratio values for each control type was calculated and used to determine the percent […] for each test well in the plate. Reference compound was serially diluted three-fold in DMSO for a total of nine test concentrations, beginning at 20 μM.
Percent inhibition was determined and IC50 curves were generated using triplicate wells per concentration of compound. […]

Row | Compound | IC50 [µM]
1 | CNCC(O)COc1cccc(-c2nc(NC3CNC3)c(C)c(-c3c(C)noc3C)n2)c1 (stereo not shown) [Example 1-3] | ≥ 20
2 | CNCC(O)COc1ccc(Cl)c(-c2nc(NC[C@H]3COCCN3C3COC3)c(C)c(-c3c(C)noc3C)n2)c1 (stereo partly shown) [Example 2-3] | < 5
3 | CNCC(O)COc1cccc(-c2nc(NC3CC(F)C3)c(C)c(-c3c(C)noc3C)n2)c1 (stereo not shown) [Example 3-3] | < 5
4 | CNCC(O)COc1ccc(Cl)c(-c2nc(N[C@H]3CCN(C(=O)OC)C[C@H]3F)c(C)c(-c3c(C)noc3C)n2)c1 (stereo partly shown) [Example 4-3] | < 5
5 | CNCC(O)COc1cccc(-c2nc(-c3c(C)noc3C)cc(N(C)CCC#N)n2)c1 (stereo not shown) [Example 5-1a] | 10 to 20
6 | CNCC(O)COc1cc(Cl)cc(-c2nc(NC3CCOCC3)cc(-c3c(C)noc3C)n2)c1 (stereo not shown) [Example 7-1a] | 10 to 20
7 | CNCC(O)COc1cccc(-c2nc(-c3cncnc3)cc(-c3c(C)noc3C)n2)c1 (stereo not shown) [Example 8-1a] | 10 to 20
8 | CNCC(O)COc1ccc(Cl)c(-c2nc(NCC3CCOCC3)c(C)c(-c3c(C)noc3C)n2)c1 (stereo not shown) [Example 9-3] | < 5
9 | CNCC(O)COc1cc(Cl)cc(-c2nc(N[C@@H]3CCOC3)cc(-c3c(C)noc3C)n2)c1 (stereo partly shown) [Example 10-1a] | 10 to 20
10 | CNCC(O)COc1cccc(-c2nc(N[C@@H]3CCOC3)cc(-c3c(C)noc3C)n2)c1 (stereo partly shown) [Example 11-1a] | 5 to 10
11 | CNCC(O)COc1cccc(-c2nc(N[C@@H]3CCOC3)c(C)c(N3CC4CN(S(C)(=O)=O)CC4C3)n2)c1 (stereo partly shown) [Example 11-3] | 5 to 10
12 | CNCC(O)COc1cccc(-c2nc(-c3c(C)noc3C)c(C)c(N3CC(NC(=O)OC)C3)n2)c1 (stereo not shown) [Example 12-3] | < 5
13 | CNCC(O)COc1cccc(-c2nc(N[C@H]3CCOC3)cc(-c3c(C)noc3C)n2)c1 (stereo partly shown) [Example 13-1a] | 5 to 10
14 | CNCC(O)COc1cccc(-c2nc(-c3c(C)noc3C)c(C)c(N3CC(NC(=O)N(C)C)C3)n2)c1 (stereo not shown) [Example 13-3] | < 5
15 | CNCC(O)COc1cccc(-c2nc(-c3c(C)noc3C)c(C)c(N3CCC[C@H](N(C)C(=O)OC)C3)n2)c1 (stereo partly shown) [Example 15-3] | 5 to 10
16 | Cc1noc(C)c1-c1cc(NC2CCOCC2)nc(-c2cccc(OC[C@H](O)CN)c2)n1 [Example 16-1a] | 5 to 10
17 | CCS(=O)(=O)N1CC2(CN(c3nc(-c4cccc(OCC(O)CNC)c4)nc(-c4c(C)noc4C)c3C)C2)C1 (stereo not shown) [Example 16-3] | < 5
18 | CNCC(O)COc1cccc(-c2nc(-c3c(C)noc3C)c(C)c(N3CCN(C(=O)OC)C(C(F)F)C3)n2)c1 (stereo not shown) [Example 17-3] | < 5
19 | CNCC(O)COc1cccc(-c2nc(Nc3nccn3C)c(C)c(-c3c(C)noc3C)n2)c1 (stereo not shown) [Example 18-3] | 10 to 20
20 | CNCC(O)COc1cccc(-c2nc(-c3c(C)noc3C)cc(N3CCN(C)CC3)n2)c1 (stereo not shown) [Example 19-1a] | 10 to 20
21 | CNCC(O)COc1cccc(-c2nc(N[C@H]3C[C@@](C)(OC)C3)c(C)c(-c3c(C)noc3C)n2)c1 (stereo partly shown) [Example 19-3] | < 5
22 | CNCC(O)COc1cccc(-c2nc(-c3c(C)noc3C)c(C)c(N(C)[C@H]3C[C@@](C)(OC)C3)n2)c1 (stereo partly shown) [Example 20-3] | < 5
23 | CNCC(O)COc1cc(Cl)cc(-c2nc(NC3CCN(C4CC4)CC3)c(C)c(-c3c(C)noc3C)n2)c1 (stereo not shown) [Example 22-3] | < 5
24 | CCOC(=O)N1CCOC[C@H]1CNc1nc(-c2cc(OC[C@H](O)CNC)ccc2Cl)nc(-c2c(C)noc2C)c1C [Example 25-3] | < 5
25 | CNC[C@H](O)COc1ccc(F)c(-c2nc(NC3CCN(C(=O)OC)CC3)c(C)c(-c3c(C)noc3C)n2)c1 [Example 26-3] | < 5
26 | CCOC(=O)N1CCN(c2cc(-c3c(C)noc3C)nc(-c3cccc(OCC(O)CNC)c3)n2)CC1 (stereo not shown) [Example 28-1a] | < 5
27 | CCOC(=O)N1CCCCC1CNc1nc(-c2cc(OC[C@H](O)CNC)ccc2Cl)nc(-c2c(C)noc2C)c1C (stereo partly shown) [Example 28-3] | < 5
28 | CNCC(O)COc1cccc(-c2nc(-c3c(C)noc3C)cc(N3CCNC(C(=O)O)C3)n2)c1 (stereo not shown) [Example 29-1a] | 10 to 20

Continued, values first:

Row | IC50 [µM] | Compound
29 | < 5 | CNCC(O)COc1cccc(-c2nc(-c3c(C)noc3C)cc(N(C)C3CCOCC3)n2)c1 (stereo not shown) [Example 1-1a]
30 | 5 to 10 | CNCC(O)COc1cccc(-c2nc(N[C@@H]3CCOC3)c(C)c(N3CCOCC3)n2)c1 (stereo partly shown) [Example 3-1]
31 | 10 to 20 | CNCC(O)COc1cccc(-c2nc(-c3c(C)noc3C)cc(-c3c(C)noc3C)n2)c1 (stereo not shown) [Example 3-1a]
32 | 10 to 20 | CNCC(O)COc1cc(Cl)cc(-c2nc(-c3c(C)noc3C)cc(-c3c(C)noc3C)n2)c1 (stereo not shown) [Example 4-1a]
33 | 5 to 10 | CNCC(O)COc1cccc(-c2nc(NC3(CO)CC3)c(C)c(-c3c(C)noc3C)n2)c1 (stereo not shown) [Example 5-3]
34 | < 5 | CNCC(O)COc1cccc(-c2nc(NC3CCOCC3)c(C)c(-c3c(C)noc3C)n2)c1 (stereo not shown) [Example 6-1a]
35 | < 5 | CNCC(O)COc1ccc(Cl)c(-c2nc(NC[C@H]3CCCO3)c(C)c(-c3c(C)noc3C)n2)c1 (stereo partly shown) [Example 6-3]
36 | < 5 | CNCC(O)COc1ccc(Cl)c(-c2nc(NC[C@@H]3CCCO3)c(C)c(-c3c(C)noc3C)n2)c1 (stereo partly shown) [Example 7-3]
37 | < 5 | CNCC(O)COc1cccc(-c2nc(NC3(C(F)(F)F)CC3)c(C)c(-c3c(C)noc3C)n2)c1 (stereo not shown) [Example 8-3]
38 | 5 to 10 | CNCC(O)COc1cc(Cl)cc(-c2nc(Nc3cncnc3)cc(-c3c(C)noc3C)n2)c1 (stereo not shown) [Example 9-1a]
39 | < 5 | CNCC(O)COc1cccc(-c2nc(N[C@H]3CCC[C@@H](O)C3)c(C)c(-c3c(C)noc3C)n2)c1 (stereo partly shown) [Example 10-3]
40 | 10 to 20 | CNCC(O)COc1cc(Cl)cc(-c2nc(N[C@H]3CCOC3)cc(-c3c(C)noc3C)n2)c1 (stereo partly shown) [Example 12-1a]
41 | < 5 | CCC(=O)NC1CN(c2nc(-c3cccc(OCC(O)CNC)c3)nc(-c3c(C)noc3C)c2C)C1 (stereo not shown) [Example 14-3]
42 | 10 to 20 | Cc1noc(C)c1-c1cc(NC2CCOCC2)nc(-c2cccc(OC[C@@H](O)CN)c2)n1 [Example 15-1a]
43 | < 5 | CNC[C@H](O)COc1cccc(-c2nc(NC3CCOCC3)cc(-c3c(C)noc3C)n2)c1 [Example 17-1a]
44 | < 5 | CNC[C@@H](O)COc1cccc(-c2nc(NC3CCOCC3)cc(-c3c(C)noc3C)n2)c1 [Example 18-1a]
45 | 5 to 10 | CCN1CCN(c2cc(-c3c(C)noc3C)nc(-c3cccc(OCC(O)CNC)c3)n2)CC1 (stereo not shown) [Example 20-1a]
46 | 5 to 10 | CNCC(O)COc1cccc(-c2nc(Nc3cncnc3)cc(-c3c(C)noc3C)n2)c1 (stereo not shown) [Example 21-1a]
47 | < 5 | CNCC(O)COc1cc(Cl)cc(-c2nc(NC3CCN(CC(F)F)CC3)c(C)c(-c3c(C)noc3C)n2)c1 (stereo not shown) [Example 21-3]
48 | < 5 | CCOC(=O)N1CCOC[C@H]1CNc1nc(-c2cc(OC[C@@H](O)CNC)ccc2Cl)nc(-c2c(C)noc2C)c1C [Example 24-3]
49 | 10 to 20 | CNCC(O)COc1cccc(-c2nc(N[C@H]3CCOC3)c(C)c(N3CCOCC3)n2)c1 (stereo partly shown) [Example 26-1]
50 | 10 to 20 | CNCC(O)COc1cccc(-c2nc(NC)cc(-c3c(C)noc3C)n2)c1 (stereo not shown) [Example 27-1a]
51 | < 5 | CCOC(=O)N1CCCCC1CNc1nc(-c2cc(OC[C@@H](O)CNC)ccc2Cl)nc(-c2c(C)noc2C)c1C (stereo partly shown) [Example 27-3]
52 | < 5 | CNCC(O)COc1ccc(Cl)c(-c2nc(NC3CCOCC3)c(C)c(-c3c(C)noc3C)n2)c1 (stereo not shown) [Example 29-3]
